The source of these data is patent US5708018A, “2-aminoindans as selective dopamine D3 ligands” (Pharmacia & Upjohn Company, priority 1996, dated 1998).

One assay has as its target T1, D2 (Rattus norvegicus, UniProt P61169).
T1 construct: expressed in transfected cells; host or cells: CHO-K1
Put plainly: Competition binding, cloned mammalian D2 receptors expressed in CHO-K1 cells, [3H]-5-(dipropylamino)-5,6-dihydro-4H-imidazo(4,5,1-ij)quinolin-2(1H)-one (R-enantiomer). The note with it: radioligand 2 nM, IC50 from one-site fit, Ki by Chen-Prushoff equation. The protocol:
(§1) Competition binding experiments employed eleven dilutions of test compounds competing with [^3 H]-5-(dipropylamino)-5,6-dihydro-4H-imidazo(4,5,1-ij)quinolin-2(1H)-one (R-enantiomer) (62 Ci/mmol, 2 nM) and [^3 H]-spiperone (107 Ci/mmol, 0.5 nM) for D2 and D3 binding sites, respectively. (Lahti, R. A., Eur. J. Pharmacol., 202, 289 (1991)) In each experiment, cloned mammalian receptors expressed in CHO-K1 cells were used. (Chio, C. L., Nature, 343, 266 (1990); and Huff, R. M., Mol. Pharmacol. (1993), in press). IC50 values were estimated by fitting the data to a one-site model by non-linear least squares minimization. Ki values were calculated with the Chen-Prushoff equation.

The target of the next assay is T2, D3 (Rattus norvegicus, UniProt P19020).
T2 construct: expressed in transfected cells; host or cells: CHO-K1
T2 sequence (P19020 whole entry): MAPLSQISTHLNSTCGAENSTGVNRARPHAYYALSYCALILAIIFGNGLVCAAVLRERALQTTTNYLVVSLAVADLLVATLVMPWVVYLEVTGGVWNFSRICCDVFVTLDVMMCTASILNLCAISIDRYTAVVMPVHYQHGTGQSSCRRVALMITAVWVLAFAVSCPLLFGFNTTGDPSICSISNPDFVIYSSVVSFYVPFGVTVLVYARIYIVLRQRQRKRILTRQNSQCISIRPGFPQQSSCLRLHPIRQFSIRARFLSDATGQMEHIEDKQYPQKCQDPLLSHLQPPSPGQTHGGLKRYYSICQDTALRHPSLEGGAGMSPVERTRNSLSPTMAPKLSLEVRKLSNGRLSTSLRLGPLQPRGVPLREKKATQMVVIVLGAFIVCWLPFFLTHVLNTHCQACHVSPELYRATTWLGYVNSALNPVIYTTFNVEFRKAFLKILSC
Put plainly: Competition binding, cloned mammalian D3 receptors expressed in CHO-K1 cells, [3H]-spiperone. The protocol:
as §1

The mark [1] stands for this setting: cloned mammalian receptors in CHO-K1 cells, [3H]-spiperone 0.5 nM, IC50 from one-site fit, Ki by Chen-Prushoff equation, read-out: D3 (ki).

Like-named read-outs stand apart in the source and are kept apart here.

T1 sequence (P61169 whole entry): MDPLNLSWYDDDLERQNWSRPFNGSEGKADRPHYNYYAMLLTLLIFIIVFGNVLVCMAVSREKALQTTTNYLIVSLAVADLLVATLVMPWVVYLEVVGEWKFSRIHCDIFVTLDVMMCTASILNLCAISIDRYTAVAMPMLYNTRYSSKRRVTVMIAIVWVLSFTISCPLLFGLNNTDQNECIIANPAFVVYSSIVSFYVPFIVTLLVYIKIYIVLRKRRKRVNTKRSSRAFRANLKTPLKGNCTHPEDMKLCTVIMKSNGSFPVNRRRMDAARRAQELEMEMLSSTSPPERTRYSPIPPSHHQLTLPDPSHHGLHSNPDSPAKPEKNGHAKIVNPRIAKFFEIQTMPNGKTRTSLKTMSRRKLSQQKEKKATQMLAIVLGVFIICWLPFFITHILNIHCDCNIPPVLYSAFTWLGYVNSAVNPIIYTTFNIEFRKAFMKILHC

As for `CCCN(CCC)C1Cc2cc(O)c(C(=O)OC)cc2C1` (centres unmarked) [Example 10, 5-(carbomethoxy)-6-hydroxy-2-(di-N-propylamino)indan], the Ki on D2 was determined as 0.121 µM; on D3 it was 0.0065 µM.
Consider `CCCN(CCC)C1Cc2ccc(OS(=O)(=O)C(F)(F)F)cc2C1` (centres unmarked) [Example 2], for which the Ki stood at 0.35 µM at D2 and 0.031 µM on D3.
As for `CCCN(CCC)C1Cc2ccc(OS(=O)(=O)c3ccc(C)cc3)cc2C1` (centres unmarked) [Example 17, Toluene-4-sulfonic acid 2-dipropylamino-indan-5-yl ester], the Ki at D2 amounted to 0.108 µM; at D3 (setting [1]), 0.0037 µM.
`CCCN(CCC)C1Cc2cc(OS(=O)(=O)c3ccc(C)cc3)c(OS(=O)(=O)c3ccc(C)cc3)cc2C1` [Example 32, 5,6 di-toluenesulfonyloxy-2-(di-n-propylamino)indan]: the inhibition constant (Ki) was found to be 0.291 µM at D2 and 0.045 µM at D3 (setting [1]).
